Patent US10144715B2, “Piperazine derivatives as liver X receptor modulators” (priority 2014, dated 2018)
Read-outs that look alike come from different tables or passages of the source.

How the values were obtained:
LXR α LBD protein = LXR α LBD protein (Homo sapiens (Human), UniProt Q13133); assay: LXR α radioligand binding assay (SPA, competition with [3H]TO901317); conditions: read-out: LXRα Binding Ki
[1] = biological target: Gal4 DNA binding domain fused to the LBD of LXRα in HEK293 cells (Homo sapiens (Human), UniProt Q13133); assay: LXR luciferase transcriptional reporter gene assay, agonist mode, LXRα; assay type: cell-based
[2] = biological target: Gal4 DNA binding domain fused to the LBD of LXRβ in HEK293 cells (Homo sapiens (Human), UniProt P55055); assay: cell-based
[3] = Biological Test Example 2, agonist mode, read-out: Cell LXRα EC50
[4] = agonist mode, read-out: Cell LXRα EC50
[5] = Biological Test Example 2, agonist mode
[6] = Biological Test Example 2, agonist mode, read-out: Cell LXRβ EC50

Gal4 DNA binding domain fused to the LBD of LXRβ in HEK293 cells, sequence (P55055 222-460 limits assumed): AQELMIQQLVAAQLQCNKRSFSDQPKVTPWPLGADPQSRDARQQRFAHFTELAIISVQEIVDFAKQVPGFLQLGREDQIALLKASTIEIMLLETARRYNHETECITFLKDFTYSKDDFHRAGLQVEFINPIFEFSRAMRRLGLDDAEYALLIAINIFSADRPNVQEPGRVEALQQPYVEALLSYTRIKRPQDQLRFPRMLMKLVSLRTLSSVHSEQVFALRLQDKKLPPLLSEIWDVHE
LXR α LBD protein, sequence (Q13133 209-447): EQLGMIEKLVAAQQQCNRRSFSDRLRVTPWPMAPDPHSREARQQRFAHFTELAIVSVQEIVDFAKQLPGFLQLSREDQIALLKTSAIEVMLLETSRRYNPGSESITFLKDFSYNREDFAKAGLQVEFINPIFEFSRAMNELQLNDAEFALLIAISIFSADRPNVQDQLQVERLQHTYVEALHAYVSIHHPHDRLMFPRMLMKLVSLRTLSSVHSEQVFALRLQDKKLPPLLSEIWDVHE
Gal4 DNA binding domain fused to the LBD of LXRα in HEK293 cells, sequence (Q13133 209-447): as above

Structure (SMILES) | Cell LXRα efficacy [1] | Ki (LXR α LBD protein) | EC50 [1, 4] | other results
CC(C)[C@H]1CN(c2ccc(CO)c(S(C)(=O)=O)c2)CCN1CC1CCN(CC(F)(F)F)CC1 [48-50, (S)-(4-(3-isopropyl-4-((1-(2,2,2-trifluoroethyl)piperidin-4-yl)methyl)piperazin-1-yl)-2-(methylsulfonyl)phenyl)methanol] | 386 (77) % | – | – | Ki (LXR α LBD protein; Biological Test Example 1): 587 nM; EC50 [1, 3]: 386 nM
CC(C)[C@@H]1CN(c2ccc(F)c(S(C)(=O)=O)c2)CCN1c1ncc(C(F)(F)F)c(C#N)n1 [Cpd No 43-1, (R)-2-(4-(4-fluoro-3-(methylsulfonyl)phenyl)-2-isopropylpiperazin-1-yl)-5-(trifluoromethyl)pyrimidine-4-carbonitrile] | 136 (101) % | 26 nM | – | EC50 ([1]; read-out: Cell LXRα EC50): 136 nM
Cc1nc(N2CCN(c3ccc(F)c(S(C)(=O)=O)c3)C[C@H]2C(C)C)ncc1S(C)(=O)=O [Cpd No 3-3, (R)-2-(4-(4-fluoro-3-(methylsulfonyl)phenyl)-2-isopropylpiperazin-1-yl)-4-methyl-5-(methylsulfonyl)pyrimidine] | 9543 (37) % | > 3330 nM | 9540 nM | –
CC(=O)NCc1ccc(N2CCN(c3nccc(C(F)(F)F)n3)[C@H](C(C)C)C2)cc1S(C)(=O)=O [Cpd No 54-1, (R)-N-(4-(3-isopropyl-4-(4-(trifluoromethyl)pyrimidin-2-yl)piperazin-1-yl)-2-(methylsulfonyl)benzyl)acetamide] | – | – | – | Ki (LXR α LBD protein; Biological Test Example 1): 716 nM; Cell LXRα efficacy [1, 5]: 72%; EC50 [1, 3]: 2200 nM
COc1cnc(N2CCN(c3ccc(F)c(S(C)(=O)=O)c3)C[C@H]2C(C)C)nc1C(F)(F)F [Cpd No 29-1, (R)-2-(4-(4-fluoro-3-(methylsulfonyl)phenyl)-2-isopropylpiperazin-1-yl)-5-methoxy-4-(trifluoromethyl)pyrimidine] | 266 (104) % | 9 nM | 266 nM | –
CS(=O)(=O)c1cccc(N2CCN(CC3CCC(C(F)(F)F)O3)[C@@H](c3ccc(F)cc3)C2)c1 (stereo partly drawn) [48-74, (2S)-2-(4-fluorophenyl)-4-(3-(methylsulfonyl)phenyl)-1-((5-(trifluoromethyl)tetrahydrofuran-2-yl)methyl)piperazine] | – | – | – | Ki (LXR α LBD protein; Biological Test Example 1): 11400 nM; EC50 [1, 3]: > 20000 nM
CC(C)[C@@H]1CN(c2ccc(F)c(S(C)(=O)=O)c2)CCN1c1ncc(C(F)(F)F)cc1N [Cpd No 21-1, (R)-2-(4-(4-fluoro-3-(methylsulfonyl)phenyl)-2-isopropylpiperazin-1-yl)-5-(trifluoromethyl)pyridin-3-amine] | 3767 (74) % | 608 nM | – | EC50 [1]: 3770 nM
CC(C)[C@@H]1CN(c2ccc(F)c(S(C)(=O)=O)c2)CCN1c1ncc(CN)c(C(F)(F)F)n1 [15-2, (R)-(2-(4-(4-fluoro-3-(methylsulfonyl)phenyl)-2-isopropylpiperazin-1-yl)-4-(trifluoromethyl)pyrimidin-5-yl)methanamine] | – | – | > 20000 nM | Cell LXRβ efficacy [2]: 3001 (13) %; EC50 [2]: 3000 nM
CC(C)[C@H]1CN(c2ccc(CO)c(S(C)(=O)=O)c2)CCN1C[C@@H]1CCN(CC(F)(F)F)C1 (single isomer, unassigned) [48-59] | 1189 (54) % | – | – | Ki (LXR α LBD protein; Biological Test Example 1): 3160 nM; EC50 [1, 3]: 1190 nM
CC(O)c1nc(N2CCN(c3ccc(F)c(S(C)(=O)=O)c3)C[C@H]2C(C)C)ncc1C(F)(F)F (stereo partly drawn) [Cpd No 38-1, 1-(2-((R)-4-(4-fluoro-3-(methylsulfonyl)phenyl)-2-isopropylpiperazin-1-yl)-5-(trifluoromethyl)pyrimidin-4-yl)ethan-1-ol] | 165 (89) % | 67 nM | 165 nM | –
CS(=O)(=O)c1cc(N2CCN(c3ncc(C(=O)O)c(C(F)(F)F)n3)[C@H](c3ccc(F)cc3)C2)ccc1F [16-2, (R)-2-(4-(4-fluoro-3-(methylsulfonyl)phenyl)-2-(4-fluorophenyl)piperazin-1-yl)-4-(trifluoromethyl)pyrimidine-5-carboxylic acid] | – | – | > 20000 nM | EC50 [2]: > 20000 nM
Cc1nnc(-c2ccc(N3CCN(c4ncc(CO)c(C(F)(F)F)n4)[C@H](C(C)C)C3)cc2S(C)(=O)=O)s1 [11-11, (R)-(2-(2-isopropyl-4-(4-(5-methyl-1,3,4-thiadiazol-2-yl)-3-(methylsulfonyl)phenyl)piperazin-1-yl)-4-(trifluoromethyl)pyrimidin-5-yl)methanol] | 3508 (31) % | 2050 nM | 3510 nM | –
CC(C)[C@H]1CN(c2cccc(S(C)(=O)=O)c2)CCN1C[C@H]1CC[C@H](C(F)(F)F)CC1 (single isomer, unassigned) [48-12] | 363 (66) % | 245 nM | – | EC50 ([1]; read-out: Cell LXRα EC50): 363 nM
CC(C)[C@H]1CN(c2ccc(CO)c(S(C)(=O)=O)c2)CCN1Cc1ccc(C(F)(F)F)c(F)c1 [47-3, (S)-(4-(4-(3-fluoro-4-(trifluoromethyl)benzyl)-3-isopropylpiperazin-1-yl)-2-(methylsulfonyl)phenyl)methanol] | 1280 (60) % | 422 nM | 1280 nM | –
Cc1ccc(N2CCN(c3cccc(S(C)(=O)=O)c3)C[C@H]2C(C)C)nn1 [7-46, (R)-3-(2-isopropyl-4-(3-(methylsulfonyl)phenyl)piperazin-1-yl)-6-methylpyridazine] | 14681 (71) % | 13600 nM | 14700 nM | –
CC(F)(F)[C@H]1CN(c2cccc(S(C)(=O)=O)c2)CCN1c1nccc(C(F)(F)F)n1 [7-25, (R)-2-(2-(1,1-difluoroethyl)-4-(3-(methylsulfonyl)phenyl)piperazin-1-yl)-4-(trifluoromethyl)pyrimidine] | – | 4820 nM | > 20000 nM | –
CCOC(=O)c1cnc(N2CCN(c3ccc(COC(C)=O)c(S(C)(=O)=O)c3)C[C@H]2C(C)C)nc1C(F)(F)F [9-10, ethyl (R)-2-(4-(4-(acetoxymethyl)-3-(methylsulfonyl)phenyl)-2-isopropylpiperazin-1-yl)-4-(trifluoromethyl)pyrimidine-5-carboxylate] | 243 (59) % | 96 nM | 243 nM | –
CS(=O)(=O)c1cccc(N2CCN(C[C@H]3CC[C@H](C(F)(F)F)CC3)[C@H](c3ccccc3Cl)C2)c1 (single isomer, unassigned) [48-47] | – | – | – | EC50 ([1]; read-out: Cell LXRα EC50): > 20000 nM; Cell LXRβ efficacy [2, 5]: 26%; EC50 [2, 6]: 1380 nM
CS(=O)(=O)c1cccc(N2CCN(C[C@@H]3C[C@@H]4[C@H](C3)C4(F)F)[C@H](c3ccccc3)C2)c1 [48-67, (R)-1-(((1R,3s,5S)-6,6-difluorobicyclo[3.1.0]hexan-3-yl)methyl)-4-(3-(methylsulfonyl)phenyl)-2-phenylpiperazine] | 7547 (30) % | – | – | EC50 ([1]; read-out: Cell LXRα EC50): 7550 nM; Cell LXRβ efficacy [2, 5]: 47%; EC50 [2, 6]: 2400 nM
CC(C)[C@@H]1CN(c2ccc(F)c(S(C)(=O)=O)c2)CCN1c1ncc(Cl)c(C2CC2)n1 [Cpd No 22-1, (R)-5-chloro-4-cyclopropyl-2-(4-(4-fluoro-3-(methylsulfonyl)phenyl)-2-isopropylpiperazin-1-yl)pyrimidine] | 1482 (31) % | – | – | EC50 ([1]; read-out: Cell LXRα EC50): 1480 nM; Cell LXRβ efficacy [2]: 139 (14) %; EC50 [2]: 139 nM
CS(=O)(=O)c1cccc(N2CCN(C[C@H]3C[C@@H]4[C@H](C3)C4(F)F)[C@H](c3ccccc3)C2)c1 (single isomer, unassigned) [48-65] | – | – | – | EC50 ([1]; read-out: Cell LXRα EC50): > 20000 nM; Cell LXRβ efficacy [2, 5]: 48%; EC50 [2, 6]: 7050 nM
